Data published in patent US9981945B2, “Pyrimidine derivatives as CFTR modulators” (NuBridge BioSciences, priority 2015, dated 2018).
Where a name gives a salt, the structure may show the parent alone.

Biological target: T1, ΔF508 mutant CFTR (Homo sapiens, UniProt P13569, DEL508-508)
T1 construct: expressed in transfected cells; host or cells: Fischer rat thyroid (FRT) cells
Assay: Fluorescence (YFP halide quenching) assay of ΔF508 mutant CFTR activity in FRT cells
Type: cell-based
Design: key: fold of mean activity with forskolin alone (I− quenching rate)
Details: FRT cells expressing ΔF508-CFTR and YFP-H148Q/I152L, rescued at 27° C. 20-24 h; forskolin 20 μM + test compound 20 μM for 20 min; I− influx rate normalized to forskolin alone
Source text: The ΔF508 mutant CFTR activities of the CFTR modulators are detected using the Fluorescence Assay developed by Pedemonte (Pedemonte N., et al., Antihypertensive 1,4-dihydropyridines as correctors of the cystic fibrosis transmembrane conductance regulator channel gating defect caused by cystic fibrosis mutations, Mol. Pharmacol., 2005, 68, 1736-1746).
Fischer rat thyroid (FRT) cells, stably transfected with ΔF508 were retransfected with the YFP-H148Q/I152L fluorescent protein. The cells were plated (100,000 cells/well) on black 96-well microplates with clear plastic bottom (Corning Life Sciences, Acton, Mass.).
The 96-well microplates containing FRT cells expressing F508-CFTR and the halide-sensitive YFP were incubated at 27° C. for 20 to 24 h to allow rescue of the mutant protein to the plasma membrane. After incubation, cells were washed with PBS (containing 137 mM NaCl, 2.7 mM KCl, 8.1 mM Na2HPO4, 1.5 mM KH2PO4, 1 mM CaCl2, and 0.5 mM MgCl2) and stimulated for 20 min with forskolin (20 μM) and test compounds (20 μM) in a final volume of 60 μl. Microplates were then transferred to a microplate reader for CFTR activity determination. Each assay consisted of a continuous 14-s fluorescence reading (5 points per second) with 2 s before and 12 s after injection of 165 μl of an iodide-containing solution (PBS with Cl^− replaced by I^−). Final iodide concentration in the wells was 100 mM. […] To determine I^− influx rate, the final 11 s of the data for each well were fitted with an exponential function to extrapolate initial slope. CFTR activity was determined by measuring the rate of fluorescence quenching induced by extracellular addition of I^−. Data are normalized to the mean activity measured in the presence of forskolin alone.

T1 sequence (P13569 with tags, fused parts or gaps DEL508-508): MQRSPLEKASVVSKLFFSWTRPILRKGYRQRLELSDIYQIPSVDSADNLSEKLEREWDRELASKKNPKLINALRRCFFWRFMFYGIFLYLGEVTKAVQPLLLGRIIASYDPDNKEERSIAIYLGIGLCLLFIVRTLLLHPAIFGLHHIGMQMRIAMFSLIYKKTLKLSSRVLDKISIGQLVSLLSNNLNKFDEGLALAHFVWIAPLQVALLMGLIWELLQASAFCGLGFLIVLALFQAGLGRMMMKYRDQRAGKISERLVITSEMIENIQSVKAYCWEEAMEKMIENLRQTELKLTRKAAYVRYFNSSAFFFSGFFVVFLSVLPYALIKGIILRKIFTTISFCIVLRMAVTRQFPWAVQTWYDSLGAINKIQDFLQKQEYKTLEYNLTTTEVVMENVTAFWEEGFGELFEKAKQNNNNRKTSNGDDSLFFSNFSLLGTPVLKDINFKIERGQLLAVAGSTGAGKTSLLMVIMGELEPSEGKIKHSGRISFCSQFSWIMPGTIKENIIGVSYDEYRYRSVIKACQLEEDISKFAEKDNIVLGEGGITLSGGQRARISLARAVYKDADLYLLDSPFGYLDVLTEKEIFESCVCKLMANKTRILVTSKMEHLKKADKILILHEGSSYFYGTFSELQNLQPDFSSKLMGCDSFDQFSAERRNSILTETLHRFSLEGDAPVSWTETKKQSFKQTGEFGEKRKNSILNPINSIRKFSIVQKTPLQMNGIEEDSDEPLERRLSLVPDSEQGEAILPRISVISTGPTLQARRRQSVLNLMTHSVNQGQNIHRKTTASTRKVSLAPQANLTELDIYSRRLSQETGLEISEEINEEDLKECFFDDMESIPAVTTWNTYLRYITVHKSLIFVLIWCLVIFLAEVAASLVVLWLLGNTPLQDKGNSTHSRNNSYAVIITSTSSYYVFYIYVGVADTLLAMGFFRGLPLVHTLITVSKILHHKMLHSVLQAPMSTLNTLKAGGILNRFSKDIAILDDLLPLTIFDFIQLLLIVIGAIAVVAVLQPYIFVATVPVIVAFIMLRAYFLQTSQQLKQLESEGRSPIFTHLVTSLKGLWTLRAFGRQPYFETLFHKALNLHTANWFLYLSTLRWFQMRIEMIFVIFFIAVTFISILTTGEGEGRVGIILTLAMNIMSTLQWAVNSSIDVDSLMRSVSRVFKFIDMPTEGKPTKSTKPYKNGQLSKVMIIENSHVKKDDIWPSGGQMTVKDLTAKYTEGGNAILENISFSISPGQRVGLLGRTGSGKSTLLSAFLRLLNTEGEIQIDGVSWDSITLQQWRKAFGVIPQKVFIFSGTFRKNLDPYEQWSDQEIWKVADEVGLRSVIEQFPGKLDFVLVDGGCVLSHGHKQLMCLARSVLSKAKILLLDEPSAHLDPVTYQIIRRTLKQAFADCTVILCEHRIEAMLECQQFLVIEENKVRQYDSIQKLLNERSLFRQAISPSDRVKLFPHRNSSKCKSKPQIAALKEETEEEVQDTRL

| Compound | CFTR Activity |
| --- | --- |
| Cl.NCCCCOc1ncncc1NC(=O)c1ccc(F)c(-c2c(F)cccc2F)n1 [Example 15, N-(4-(4-aminobutoxy)pyrimidin-5-yl)-6-(2,6-difluorophenyl)-5-fluoropicolinamide hydrochloride] | 0.5 |
| CNCCCCOc1ncncc1NC(=O)c1ccc(F)c(-c2c(F)cccc2F)n1.Cl [Example 16, 6-(2,6-difluorophenyl)-5-fluoro-N-(4-(4-(methylamino)butoxy)pyrimidin-5-yl)picolinamide hydrochloride] | 0.5 |
| O=C(Nc1cncnc1OCCCO)c1ccc(F)c(-c2c(F)cccc2F)n1 [Example 17, 6-(2,6-difluorophenyl)-5-fluoro-N-(4-(3-hydroxypropoxy)pyrimidin-5-yl)picolinamide] | 0.2 |
| CC(O)CCOc1ncncc1NC(=O)c1ccc(F)c(-c2c(F)cccc2F)n1 (stereo not drawn) [Example 18, 6-(2,6-difluorophenyl)-5-fluoro-N-(4-(3-hydroxybutoxy)pyrimidin-5-yl)picolinamide] | 0.2 |
| O=C(Nc1cncnc1OCCCCO)c1ccc(F)c(-c2c(F)cccc2F)n1 [Example 19, 6-(2,6-difluorophenyl)-5-fluoro-N-(4-(4-hydroxybutoxy)pyrimidin-5-yl)picolinamide] | 0.3 |
| CC(C)(O)CCCOc1ncncc1NC(=O)c1ccc(F)c(-c2c(F)cccc2F)n1 [Example 20, 6-(2,6-difluorophenyl)-5-fluoro-N-(4-((4-hydroxy-4-methylpentyl)oxy)pyrimidin-5-yl)picolinamide] | 0.1 |
| O=C(Nc1cncnc1OCCC(O)CO)c1ccc(F)c(-c2c(F)cccc2F)n1 (stereo not drawn) [Example 21, 6-(2,6-difluorophenyl)-N-(4-(3,4-dihydroxybutoxy)pyrimidin-5-yl)-5-fluoropicolinamide] | 0.05 |
| O=C(Nc1cncnc1OCC1CCOCC1)c1ccc(F)c(-c2c(F)cccc2F)n1 [Example 22, 6-(2,6-difluorophenyl)-5-fluoro-N-(4-((tetrahydro-2H-pyran-4-yl)methoxy)pyrimidin-5-yl)picolinamide] | 0.1 |
| Cl.Nc1cc(F)c(-c2c(F)cccc2F)nc1C(=O)Nc1cncnc1OCC1CCNCC1 [Example 23, 3-amino-6-(2,6-difluorophenyl)-5-fluoro-N-(4-(piperidin-4-ylmethoxy)pyrimidin-5-yl)picolinamide hydrochloride] | 2.2 |
| Cl.Nc1cc(F)c(-c2c(F)cccc2F)nc1C(=O)Nc1cncnc1OC1CCNC1 (stereo not drawn) [Example 24, 3-amino-6-(2,6-difluorophenyl)-5-fluoro-N-(4-(pyrrolidin-3-yloxy)pyrimidin-5-yl)picolinamide hydrochloride] | 1.9 |
| Cl.Nc1cc(F)c(-c2c(F)cccc2F)nc1C(=O)Nc1cncnc1OC1CCNCC1 [Example 25, 3-amino-6-(2,6-difluorophenyl)-5-fluoro-N-(4-(piperidin-4-yloxy)pyrimidin-5-yl)picolinamide hydrochloride] | 3.1 |
| Cl.Nc1cc(F)c(-c2c(F)cccc2F)nc1C(=O)Nc1cncnc1OC1CCCNCC1 (stereo not drawn) [Example 26, 3-amino-N-(4-(azepan-4-yloxy)pyrimidin-5-yl)-6-(2,6-difluorophenyl)-5-fluoropicolinamide hydrochloride] | 4.0 |
| Cl.Nc1cc(F)c(-c2c(F)cccc2F)nc1C(=O)Nc1cncnc1OC1CCC(N)CC1 (stereo not drawn) [Example 27, 3-amino-N-(4-(((1r,4r)-4-aminocyclohexyl)oxy)pyrimidin-5-yl)-6-(2,6-difluorophenyl)-5-fluoropicolinamide hydrochloride] | 4.4 |
| Cl.Nc1cc(F)c(-c2c(F)cccc2F)nc1C(=O)Nc1cncnc1OCC1CCNC1 (stereo not drawn) [Example 28] | 2.3 |
| NCC(CCl)Oc1ncncc1NC(=O)c1ccc(F)c(-c2c(F)cccc2F)n1 (stereo not drawn) [Example 29, N-(4-((1-amino-3-chloropropan-2-yl)oxy)pyrimidin-5-yl)-6-(2,6-difluorophenyl)-5-fluoropicolinamide hydrochloride] | 1.8 |
| Cl.NCC(CCl)COc1ncncc1NC(=O)c1ccc(F)c(-c2c(F)cccc2F)n1 (stereo not drawn) [Example 30, N-(4-(3-amino-2-(chloromethyl)propoxy)pyrimidin-5-yl)-6-(2,6-difluorophenyl)-5-fluoropicolinamide hydrochloride] | 1.5 |
| Cl.Nc1cc(F)c(-c2c(F)cccc2F)nc1C(=O)Nc1cncnc1OC1CNC1 [Example 31, 3-amino-N-(4-(azetidin-3-yloxy)pyrimidin-5-yl)-6-(2,6-difluorophenyl)-5-fluoropicolinamide hydrochloride] | 1.0 |
| Cl.Nc1cc(F)c(-c2c(F)cccc2F)nc1C(=O)Nc1cncnc1OCC1CNC1 [Example 32, 3-amino-N-(4-(azetidin-3-ylmethoxy)pyrimidin-5-yl)-6-(2,6-difluorophenyl)-5-fluoropicolinamide hydrochloride] | 1.0 |
| Cl.NCC(CCl)Oc1ncncc1NC(=O)c1nc(-c2c(F)cccc2F)c(F)cc1N (stereo not drawn) [Example 33, 3-amino-N-(4-((1-amino-3-chloropropan-2-yl)oxy)pyrimidin-5-yl)-6-(2,6-difluorophenyl)-5-fluoropicolinamide hydrochloride] | 2.2 |
| Cl.NCC(CCl)COc1ncncc1NC(=O)c1nc(-c2c(F)cccc2F)c(F)cc1N (stereo not drawn) [Example 34, 3-amino-N-(4-(3-amino-2-(chloromethyl)propoxy)pyrimidin-5-yl)-6-(2,6-difluorophenyl)-5-fluoropicolinamide hydrochloride] | 2.0 |
| Cl.Nc1cc(F)c(-c2c(F)cccc2F)nc1C(=O)Nc1cncnc1OCC1CCCNC1 (stereo not drawn) [Example 35, 3-amino-6-(2,6-difluorophenyl)-5-fluoro-N-(4-(piperidin-3-ylmethoxy)pyrimidin-5-yl)picolinamide hydrochloride] | 2.1 |
| Cl.NCCCCOc1ncncc1NC(=O)c1nc(-c2c(F)cccc2F)c(F)cc1N [Example 36, 3-amino-N-(4-(4-aminobutoxy)pyrimidin-5-yl)-6-(2,6-difluorophenyl)-5-fluoropicolinamide] | 2.4 |
| Cl.Nc1cc(F)c(-c2c(F)cccc2F)nc1C(=O)Nc1cncnc1OC1CCCC(N)C1 (stereo not drawn) [Example 37, 3-amino-N-(4-((3-aminocyclohexyl)oxy)pyrimidin-5-yl)-6-(2,6-difluorophenyl)-5-fluoropicolinamide] | 4.1 |
| Cl.Nc1cc(F)c(-c2ccccc2)nc1C(=O)Nc1cncnc1OC1CCNC1 (stereo not drawn) [Example 38, 3-amino-5-fluoro-6-phenyl-N-(4-(pyrrolidin-3-yloxy)pyrimidin-5-yl)picolinamide hydrochloride] | 1.1 |
| Cl.O=C(Nc1cncnc1OC1CCNCC1)c1ccc(F)c(-c2ccncc2)n1 [Example 39, 3-fluoro-N-(4-(piperidin-4-yloxy)pyrimidin-5-yl)-[2,4′-bipyridine]-6-carboxamide hydrochloride] | 0.5 |
| Cl.O=C(Nc1cncnc1OC1CCCNCC1)c1nc(-c2c(F)cccc2F)ccc1F (stereo not drawn) [Example 40, N-(4-(azepan-4-yloxy)pyrimidin-5-yl)-6-(2,6-difluorophenyl)-3-fluoropicolinamide hydrochloride] | 1.9 |
| COc1cccc(F)c1-c1nc(C(=O)Nc2cncnc2OC2CCCNCC2)ccc1F.Cl (stereo not drawn) [Example 41, N-(4-(azepan-4-yloxy)pyrimidin-5-yl)-5-fluoro-6-(2-fluoro-6-methoxyphenyl)picolinamide hydrochloride] | 1.8 |
